Active and inactive are the calls of the source. The rule behind the calls is not given here.
Experiments:
K562 = test: Antiproliferative activity against human K562 cells assessed as cell growth incubated for 3 days by 3H-thymidine incorporation assay relative to control; type: functional, cell-based
[1] = Antiproliferative activity against human HCT116 cells assessed as cell growth at 1 uM incubated for 3 days by 3H-thymidine incorporation assay relative to control; type: functional; conditions: HCT-116, read-out: Activity
[2] = Antiproliferative activity against human HCT116 cells assessed as cell growth incubated for 3 days by 3H-thymidine incorporation assay relative to control; type: functional, cell-based; conditions: HCT-116
MDA-MB-468 [3] = test: Antiproliferative activity against human MDA-MB-468 cells assessed as cell growth at 1 uM incubated for 3 days by 3H-thymidine incorporation assay relative to control; type: functional; conditions: read-out: Activity
MDA-MB-468 [4] = test: Antiproliferative activity against human MDA-MB-468 cells assessed as cell growth incubated for 3 days by 3H-thymidine incorporation assay relative to control; type: functional, cell-based
MDA-MB-231 [5] = test: Antiproliferative activity against human MDA-MB-231 cells assessed as cell growth at 1 uM incubated for 3 days by 3H-thymidine incorporation assay relative to control; type: functional; conditions: read-out: Activity
MDA-MB-231 [6] = test: Antiproliferative activity against human MDA-MB-231 cells assessed as cell growth incubated for 3 days by 3H-thymidine incorporation assay relative to control; type: functional, cell-based
Pseudomonas aeruginosa = test: Antibacterial activity against Pseudomonas aeruginosa at 1 to 10 mg/ml incubated overnight by agar diffusion method; type: functional, organism-based
Staphylococcus aureus = test: Antibacterial activity against Staphylococcus aureus at 1 to 10 mg/ml incubated overnight by agar diffusion method; type: functional, organism-based
Escherichia coli = test: Antibacterial activity against Escherichia coli DH5[alpha] at 1 to 10 mg/ml incubated overnight by agar diffusion method; type: functional, organism-based

| SMILES | IC50 (K562) | growth at 1 µM [1] | IC50 [2] | growth at 1 µM (MDA-MB-468 [3]) | IC50 (MDA-MB-468 [4]) | growth at 1 µM (MDA-MB-231 [5]) | IC50 (MDA-MB-231 [6]) | Activity (Pseudomonas aeruginosa) | Activity (Staphylococcus aureus) | Activity (Escherichia coli) |
| --- | --- | --- | --- | --- | --- | --- | --- | --- | --- | --- |
| Cc1cccc(NC(=O)c2sc3nc4c(cc3c2N)CCCC4)c1C | 152 nM | 5% | 199 nM | 3% | 148 nM | 4% | 204 nM |  |  |  |
| Cc1c(Cl)cccc1NC(=O)c1sc2nc3c(cc2c1N)CCC3 | 197 nM | 3% | 218 nM | 4% | 546 nM | 11% | 593 nM |  |  |  |
| Cc1c(Br)cccc1NC(=O)c1sc2nc3c(cc2c1N)CCCCC3 | 223 nM | 8% | 442 nM | 3% | 199 nM | 12% | 198 nM |  |  |  |
| Cc1c(Br)cccc1NC(=O)c1sc2nc3c(cc2c1N)CCCC3 | 185 nM | 5% | 207 nM | 3% | 185 nM | 5% | 233 nM |  |  |  |
| Nc1c(C(=O)Nc2cccc3ccccc23)sc2nc3c(cc12)CCCC3 | 576 nM | 37% | 720 nM | 8% | 447 nM | 60% | 854 nM | inactive | inactive | inactive |
| COc1cccc(NC(=O)c2sc3nc4c(cc3c2N)CCCCC4)c1 | 580 nM | 6% | 601 nM | 3% | 391 nM | 19% | 524 nM |  |  |  |
| Nc1c(C(=O)Nc2ccccc2Cl)sc2nc3c(cc12)CCCC3 |  | 94% |  | 95% |  | 119% |  | inactive | inactive | inactive |
| Cc1cccc(NC(=O)c2sc3nc4c(cc3c2N)CCCCC4)c1C | 167 nM | 6% | 204 nM | 4% | 121 nM | 6% | 198 nM |  |  |  |
| Cc1cccc(NC(=O)c2sc3nc4c(cc3c2N)CCCCCC4)c1C | 83 nM | 6% | 183 nM | 4% | 83 nM | 3% | 170 nM |  |  |  |
| Cc1c(Br)cccc1NC(=O)c1sc2nc3c(cc2c1N)CCC3 | 83 nM | 5% | 161 nM | 5% | 79 nM | 16% | 84 nM |  |  |  |
| Nc1c(C(=O)Nc2cccc(F)c2)sc2nc3c(cc12)CCCC3 | 554 nM | 11% | 563 nM | 11% | 398 nM | 30% | 632 nM |  |  |  |
| Nc1c(C(=O)Nc2cccc(F)c2)sc2nc3c(cc12)CCCCC3 | 558 nM | 29% | 543 nM | 10% | 351 nM | 28% | 448 nM |  |  |  |
| COc1cccc(NC(=O)c2sc3nc4c(cc3c2N)CCC4)c1 |  | 92% |  | 63% |  | 95% |  | inactive | inactive | inactive |
| Nc1c(C(=O)Nc2ccccc2)sc2nc3c(cc12)CCCCC3 | 570 nM | 6% | 606 nM | 5% | 383 nM | 26% | 508 nM |  |  |  |
| Cc1c(Cl)cccc1NC(=O)c1sc2nc3c(cc2c1N)CCCCC3 | 210 nM | 10% | 266 nM | 3% | 160 nM | 13% | 190 nM |  |  |  |
| Nc1c(C(=O)Nc2ccccc2F)sc2nc3c(cc12)CCCCC3 | 575 nM | 15% | 798 nM | 11% | 528 nM | 46% | 672 nM |  |  |  |
| Cc1c(Cl)cccc1NC(=O)c1sc2nc3c(cc2c1N)CCCC3 | 153 nM | 3% | 191 nM | 6% | 134 nM | 15% | 221 nM | inactive | inactive | inactive |
| Nc1c(C(=O)Nc2cccc(Cl)c2)sc2nc3c(cc12)CCCC3 |  | 80% |  | 58% |  | 98% |  | inactive | inactive | inactive |
